From patent US11395857B2, “Radiolabeled melanocortin 1 receptor-specific alpha-melanocyte-stimulating hormone analogues for imaging or therapy” (PROVINCIAL HEALTH SERVICES AUTHORITY, priority 2018, dated 2022)
Read-outs that look alike come from different tables or passages of the source.

Tests used:
[1] = Biodistribution of 177Lu-labeled αMSH analogues in mice bearing B16F10 mouse melanoma; format: in vivo, C57BL/6J mice; conditions: mouse, iv, total radioactivity, C57BL/6J mice, B16F10 melanoma
Description: (§1) The B16-F10 mouse melanoma cells were cultured and inoculated in mice as described in Example 1.
(§2) For biodistribution studies, approximately 1-2 MBq of ^177Lu-labeled αMSH analogues via tail vein under anesthesia. At 1, 4, 24, and 120 h p.i., the mice were euthanized by CO2 inhalation. Organs/tissues were harvested and the radioactivity was measured as described in Example 1.

B16F10 mouse melanoma = assay: as above; format: in vivo, C57BL/6J mice; conditions: C57BL/6J mice, B16F10 melanoma
Description: as §1, §2

- tissue uptake at 1 h ([1]; male, seminal glands, 1 h p.i., read-out: Biodistribution, Seminal glands): 0.06 ± 0.02 %ID/g
- tissue uptake at 4 h ([1]; male, seminal glands, 4 h p.i., read-out: Biodistribution, Seminal glands): 0.02 %ID/g
- tissue uptake at 24 h ([1]; male, seminal glands, 24 h p.i., read-out: Biodistribution, Seminal glands): 0.01 %ID/g
- tissue uptake at 1 h ([1]; male, testes, 1 h p.i., read-out: Biodistribution, Testes): 0.13 ± 0.02 %ID/g
- tissue uptake at 4 h ([1]; male, testes, 4 h p.i., read-out: Biodistribution, Testes): 0.03 %ID/g
- tissue uptake at 24 h ([1]; male, testes, 24 h p.i., read-out: Biodistribution, Testes): 0.03 %ID/g
- tissue uptake at 120 h ([1]; male, testes, 120 h p.i., read-out: Biodistribution, Testes): 0.02 ± 0.01 %ID/g
- tissue uptake at 1 h ([1]; adrenal glands, 1 h p.i., read-out: Biodistribution, Adrenal glands): 0.39 ± 0.13 %ID/g
- tissue uptake at 4 h ([1]; adrenal glands, 4 h p.i., read-out: Biodistribution, Adrenal glands): 0.19 ± 0.06 %ID/g
- tissue uptake at 24 h ([1]; adrenal glands, 24 h p.i., read-out: Biodistribution, Adrenal glands): 0.1 ± 0.04 %ID/g
- tissue uptake at 120 h ([1]; adrenal glands, 120 h p.i., read-out: Biodistribution, Adrenal glands): 0.03 ± 0.03 %ID/g
- tissue uptake at 1 h ([1]; blood, 1 h p.i., read-out: Biodistribution, Blood): 0.48 ± 0.22 %ID/g
- tissue uptake at 4 h ([1]; blood, 4 h p.i., read-out: Biodistribution, Blood): 0.05 ± 0.01 %ID/g
- tissue uptake at 24 h ([1]; blood, 24 h p.i., read-out: Biodistribution, Blood): 0.01 %ID/g
- tissue uptake at 1 h ([1]; bone, 1 h p.i., read-out: Biodistribution, Bone): 0.13 ± 0.03 %ID/g
- tissue uptake at 4 h ([1]; bone, 4 h p.i., read-out: Biodistribution, Bone): 0.06 ± 0.02 %ID/g
- tissue uptake at 24 h ([1]; bone, 24 h p.i., read-out: Biodistribution, Bone): 0.04 ± 0.01 %ID/g
- tissue uptake at 120 h ([1]; bone, 120 h p.i., read-out: Biodistribution, Bone): 0.02 ± 0.01 %ID/g
- tissue uptake at 1 h ([1]; brain, 1 h p.i., read-out: Biodistribution, Brain): 0.02 %ID/g
- tissue uptake at 4 h ([1]; brain, 4 h p.i., read-out: Biodistribution, Brain): 0.01 %ID/g
- tissue uptake at 1 h ([1]; fat, 1 h p.i., read-out: Biodistribution, Fat): 0.06 ± 0.02 %ID/g
- tissue uptake at 4 h ([1]; fat, 4 h p.i., read-out: Biodistribution, Fat): 0.01 %ID/g
- tissue uptake at 24 h ([1]; fat, 24 h p.i., read-out: Biodistribution, Fat): 0.01 %ID/g
- tissue uptake at 120 h ([1]; fat, 120 h p.i., read-out: Biodistribution, Fat): 0.01 %ID/g
- tissue uptake at 1 h ([1]; heart, 1 h p.i., read-out: Biodistribution, Heart): 0.17 ± 0.06 %ID/g
- tissue uptake at 4 h ([1]; heart, 4 h p.i., read-out: Biodistribution, Heart): 0.04 ± 0.01 %ID/g
- tissue uptake at 24 h ([1]; heart, 24 h p.i., read-out: Biodistribution, Heart): 0.03 %ID/g
- tissue uptake at 120 h ([1]; heart, 120 h p.i., read-out: Biodistribution, Heart): 0.02 %ID/g
- tissue uptake at 1 h ([1]; intestine, 1 h p.i., read-out: Biodistribution, Intestine): 0.25 ± 0.03 %ID/g
- tissue uptake at 4 h ([1]; intestine, 4 h p.i., read-out: Biodistribution, Intestine): 0.12 ± 0.06 %ID/g
- tissue uptake at 24 h ([1]; intestine, 24 h p.i., read-out: Biodistribution, Intestine): 0.23 ± 0.28 %ID/g
- tissue uptake at 120 h ([1]; intestine, 120 h p.i., read-out: Biodistribution, Intestine): 0.12 ± 0.16 %ID/g
- tissue uptake at 1 h ([1]; kidneys, 1 h p.i., read-out: Biodistribution, Kidneys): 4.15 ± 0.99 %ID/g
- tissue uptake at 4 h ([1]; kidneys, 4 h p.i., read-out: Biodistribution, Kidneys): 4.32 ± 2.06 %ID/g
- tissue uptake at 24 h ([1]; kidneys, 24 h p.i., read-out: Biodistribution, Kidneys): 1.61 ± 0.29 %ID/g
- tissue uptake at 120 h ([1]; kidneys, 120 h p.i., read-out: Biodistribution, Kidneys): 0.5 ± 0.02 %ID/g
- tissue uptake at 1 h ([1]; liver, 1 h p.i., read-out: Biodistribution, Liver): 0.41 ± 0.11 %ID/g
- tissue uptake at 4 h ([1]; liver, 4 h p.i., read-out: Biodistribution, Liver): 0.34 ± 0.1 %ID/g
- tissue uptake at 24 h ([1]; liver, 24 h p.i., read-out: Biodistribution, Liver): 0.32 ± 0.13 %ID/g
- tissue uptake at 120 h ([1]; liver, 120 h p.i., read-out: Biodistribution, Liver): 0.19 ± 0.02 %ID/g
- tissue uptake at 1 h ([1]; lungs, 1 h p.i., read-out: Biodistribution, Lungs): 0.54 ± 0.2 %ID/g
- tissue uptake at 4 h ([1]; lungs, 4 h p.i., read-out: Biodistribution, Lungs): 0.17 ± 0.06 %ID/g
- tissue uptake at 24 h ([1]; lungs, 24 h p.i., read-out: Biodistribution, Lungs): 0.07 ± 0.02 %ID/g
- tissue uptake at 120 h ([1]; lungs, 120 h p.i., read-out: Biodistribution, Lungs): 0.04 ± 0.01 %ID/g
- tissue uptake at 1 h ([1]; muscle, 1 h p.i., read-out: Biodistribution, Muscle): 0.1 ± 0.04 %ID/g
- tissue uptake at 4 h ([1]; muscle, 4 h p.i., read-out: Biodistribution, Muscle): 0.02 %ID/g
- tissue uptake at 24 h ([1]; muscle, 24 h p.i., read-out: Biodistribution, Muscle): 0.01 %ID/g
- tissue uptake at 120 h ([1]; muscle, 120 h p.i., read-out: Biodistribution, Muscle): 0.01 %ID/g
- tissue uptake at 1 h ([1]; pancreas, 1 h p.i., read-out: Biodistribution, Pancreas): 0.13 ± 0.05 %ID/g
- tissue uptake at 4 h ([1]; pancreas, 4 h p.i., read-out: Biodistribution, Pancreas): 0.03 ± 0.01 %ID/g
- tissue uptake at 24 h ([1]; pancreas, 24 h p.i., read-out: Biodistribution, Pancreas): 0.03 %ID/g
- tissue uptake at 120 h ([1]; pancreas, 120 h p.i., read-out: Biodistribution, Pancreas): 0.02 %ID/g
- tissue uptake at 1 h ([1]; spleen, 1 h p.i., read-out: Biodistribution, Spleen): 0.24 ± 0.08 %ID/g
- tissue uptake at 4 h ([1]; spleen, 4 h p.i., read-out: Biodistribution, Spleen): 0.13 ± 0.04 %ID/g
- tissue uptake at 24 h ([1]; spleen, 24 h p.i., read-out: Biodistribution, Spleen): 0.12 ± 0.02 %ID/g
- tissue uptake at 120 h ([1]; spleen, 120 h p.i., read-out: Biodistribution, Spleen): 0.07 ± 0.01 %ID/g
- tissue uptake at 1 h ([1]; stomach, 1 h p.i., read-out: Biodistribution, Stomach): 0.13 ± 0.02 %ID/g
- tissue uptake at 4 h ([1]; stomach, 4 h p.i., read-out: Biodistribution, Stomach): 0.59 ± 1.14 %ID/g
- tissue uptake at 24 h ([1]; stomach, 24 h p.i., read-out: Biodistribution, Stomach): 0.53 ± 0.48 %ID/g
- tissue uptake at 120 h ([1]; stomach, 120 h p.i., read-out: Biodistribution, Stomach): 0.12 ± 0.16 %ID/g
- tissue uptake at 1 h ([1]; thyroid, 1 h p.i., read-out: Biodistribution, Thyroid): 0.22 ± 0.09 %ID/g
- tissue uptake at 4 h ([1]; thyroid, 4 h p.i., read-out: Biodistribution, Thyroid): 0.07 ± 0.01 %ID/g
- tissue uptake at 24 h ([1]; thyroid, 24 h p.i., read-out: Biodistribution, Thyroid): 0.06 ± 0.01 %ID/g
- tissue uptake at 120 h ([1]; thyroid, 120 h p.i., read-out: Biodistribution, Thyroid): 0.05 ± 0.01 %ID/g
- excreta dose per gram or mL at 1 h ([1]; urine, 1 h p.i.): 227 ± 115 %ID/g
- excreta dose per gram or mL at 4 h ([1]; urine, 4 h p.i.): 49.1 ± 39.7 %ID/g
- excreta dose per gram or mL at 24 h ([1]; urine, 24 h p.i.): 0.46 ± 0.31 %ID/g
- excreta dose per gram or mL at 120 h ([1]; urine, 120 h p.i.): 0.09 ± 0.06 %ID/g
- Biodistribution, B16F10 tumour (B16F10 mouse melanoma; 1 h p.i.): 4.49 ± 1.89 % ID/g
- Biodistribution, B16F10 tumour (B16F10 mouse melanoma; 4 h p.i.): 4.42 ± 0.64 % ID/g
- Biodistribution, B16F10 tumour (B16F10 mouse melanoma; 24 h p.i.): 2.04 ± 0.46 % ID/g
- Biodistribution, Brain (B16F10 mouse melanoma; 24 h p.i.): 0.00 ± 0.00 % ID/g
- Biodistribution, B16F10 tumour (B16F10 mouse melanoma; 120 h p.i.): 0.49 ± 0.30 % ID/g
- Biodistribution, Blood (B16F10 mouse melanoma; 120 h p.i.): 0.00 ± 0.00 % ID/g
- Biodistribution, Brain (B16F10 mouse melanoma; 120 h p.i.): 0.00 ± 0.00 % ID/g
- Biodistribution, Seminal glands (B16F10 mouse melanoma; 120 h p.i.): 0.00 ± 0.00 % ID/g
SMILES: CCCC[C@H](NC(=O)CN1CCC(NC(=O)CN2CCN(CC(=O)O)CCN(CC(=O)O)CCN(CC(=O)O)CC2)CC1)C(=O)N[C@H]1CC(=O)NCCCC[C@@H](C(N)=O)N(C)C(=O)[C@H](Cc2c[nH]c3ccccc23)N(C)C(=O)[C@H](CCCNC(=N)N)N(C)C(=O)[C@@H](Cc2ccccc2)NC(=O)[C@H](Cc2c[nH]cn2)N(C)C1=O [^177Lu-labeled CCZ01099, metal not drawn]
